Here are results for 24 molecules from patent US20170334899A1, “AMINO-SUBSTITUTED ISOTHIAZOLES” (Bayer Pharma Aktiengesellschaft, priority 2014, published 2017).

Assay [1] relates to human cervical tumor cell line HeLa (ATCC CCL-2). The assay can be described thus: SAC-Formation - Paclitaxel-Induced Assay. The format is cell-based. The following applies: Homo sapiens, HeLa, 24 h, HeLa cells, paclitaxel 0.05 μM, test range 0.005 μM-20 μM, read-out: IC50 [mol/l] SAC-Formation - Paclitaxel-Induced Assay. In short, it runs like this: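 Read-out is high-content imaging of anti-phospho-H3 Ser10 (mitosis) and Hoechst 33342 (DNA, cell number), with decreased mitotic fraction marking checkpoint breakthrough. Compounds (0.005–20 μM) and 0.05 μM paclitaxel co-added to overnight-plated HeLa for 24 h at 37° C; four-parameter Hill fit.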

The test system of the next assay is HeLa. The assay can be described thus: Proliferation assay (crystal violet), HeLa. The following applies: Homo sapiens, HeLa, 96 h, HeLa cells; 4 days incubation; crystal violet staining; read-out: IC50 inhibition of proliferation, HeLa. The format is cell-based. Summed up: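 Crystal violet proliferation readout, 4-day compound incubation, 0.001–10 μM, final DMSO 0.5%. Zero-point plate stained at time of dosing set as 0%, untreated control as 100%; IC50 via 4-parameter fit.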

Consider `Cc1nsc(Nc2cnc3ccccc3n2)c1C(=O)Nc1cccc(NS(=O)(=O)C2CCCN(C(=O)OCc3ccccc3)C2)c1` (centres unmarked) [Example 291, benzyl 3-{[3-({[3-methyl-5-(quinoxalin-2-ylamino)-1,2-thiazol-4-yl]carbonyl}amino)phenyl]sulfamoyl} piperidine-1-carboxylate], for which the IC50 was determined as 4800 nM in assay [1] and 8900 nM in the assay with HeLa. For the molecule `Cc1nsc(Nc2cnc3ccccc3n2)c1C(=O)Nc1cccc(NS(=O)(=O)C2CCN(C(=O)OC(C)(C)C)C2)c1` (centres unmarked) [Example 290, tert-butyl 3-{[3-({[3-methyl-5-(quinoxalin-2-ylamino)-1,2-thiazol-4-yl]carbonyl}amino)phenyl]sulfamoyl} pyrrolidine-1-carboxylate], the IC50 in assay [1] was 3600 nM; in the assay on HeLa, 8800 nM. In the same order, the values of `Cc1nsc(Nc2cnc3ccccc3n2)c1C(=O)Nc1cccc(C(=O)NC(C)C)c1` [Example 253, N-[3-(isopropylcarbamoyl)phenyl]-3-methyl-5-(quinoxalin-2-ylamino)-1,2-thiazole-4-carboxamide] are 2200 nM and 3100 nM. Regarding `Cc1nsc(Nc2cncc(C(F)(F)F)n2)c1C(=O)Nc1ccc(F)c(OC2CCN(CC(F)F)CC2)c1` [Example 268, N-(3-{[1-(2,2-difluoroethyl)piperidin-4-yl]oxy}-4-fluorophenyl)-3-methyl-5-{[6-(trifluoromethyl)pyrazin-2-yl]amino}-1,2-thiazole-4-carboxamide], the IC50 in assay [1] was determined as 110 nM; in the assay on HeLa it was 310 nM. As to `Cc1nsc(Nc2cncc(C(F)(F)F)n2)c1C(=O)Nc1ccc(C(=O)N2CCN(CC(F)F)CC2)cc1` [Example 273, N-(4-{[4-(2,2-difluoroethyl)piperazin-1-yl]carbonyl}phenyl)-3-methyl-5-{[6-(trifluoromethyl)pyrazin-2-yl]amino}-1,2-thiazole-4-carboxamide], the IC50 was 4800 nM in assay [1] and 7600 nM with HeLa. As to `Cc1nsc(Nc2cnc3ccccc3n2)c1C(=O)Nc1cccc(NS(=O)(=O)C2CCN(CC(F)(F)F)C2)c1` (centres unmarked) [Example 289, 3-methyl-5-(quinoxalin-2-ylamino)-N-[3-({[1-(2,2,2-trifluoroethyl)pyrrolidin-3-yl]sulfonyl}amino)phenyl]-1,2-thiazole-4-carboxamide], the results for the IC50 (in assay [1]; with HeLa) were 3300 nM and 7800 nM, respectively. In the case of `Cc1nsc(Nc2cncc(C(F)(F)F)n2)c1C(=O)Nc1ccc(C(=O)N2CCN(CCF)CC2)cc1` [Example 274, N-(4-{[4-(2-fluoroethyl)piperazin-1-yl]carbonyl}phenyl)-3-methyl-5-{[6-(trifluoromethyl)pyrazin-2-yl]amino}-1,2-thiazole-4-carboxamide], the figures for the IC50 (in assay [1]; with HeLa) were 9000 nM and > 10000 nM, respectively. In the case of `Cc1nsc(Nc2cnc3ccccc3n2)c1C(=O)Nc1cccc(C(=O)NC2CC2)c1` [Example 249, N-[3-(cyclopropylcarbamoyl)phenyl]-3-methyl-5-(quinoxalin-2-ylamino)-1,2-thiazole-4-carboxamide], the values for the IC50 (in assay [1]; in the assay with HeLa) were 1100 nM and 6200 nM, respectively.

Turning to `Cc1nsc(Nc2cncc(C(F)(F)F)n2)c1C(=O)Nc1ccc(F)c(OC2CCN(CCF)CC2)c1` [Example 269, N-(4-fluoro-3-{[1-(2-fluoroethyl)piperidin-4-yl]oxy}phenyl)-3-methyl-5-{[6-(trifluoromethyl)pyrazin-2-yl]amino}-1,2-thiazole-4-carboxamide], the values for the IC50 (in assay [1]; with HeLa) were 210 nM and 840 nM, respectively. Turning to `Cc1nsc(Nc2cnc(C(F)(F)F)cn2)c1C(=O)Nc1ccc(F)c(OCC2CCN(C(CF)CF)CC2)c1` [Example 312, N-(3-{[1-(1,3-difluoropropan-2-yl)piperidin-4-yl]methoxy}-4-fluorophenyl)-3-methyl-5-{[5-(trifluoromethyl)pyrazin-2-yl]amino}-1,2-thiazole-4-carboxamide], the IC50 in the assay with HeLa was 420 nM. For the molecule `Cc1nsc(Nc2cc(C#N)ccn2)c1C(=O)Nc1ccc(OC2CCNCC2)nc1` [Example 24, 5-[(4-Cyanopyridin-2-yl)amino]-3-methyl-N-[6-(piperidin-4-yloxy)pyridin-3-yl]-1,2-thiazole-4-carboxamide], the IC50 in assay [1] was 20000 nM; in the assay on HeLa it was 10000 nM.

Turning to `Cc1nsc(Nc2cnc(C(F)(F)F)cn2)c1C(=O)Nc1cccc(NC(=O)OC(C)(C)C)c1` [Example 284, 3-tert-butyl (3-{[(3-methyl-5-{[5-(trifluoromethyl)pyrazin-2-yl]amino}-1,2-thiazol-4-yl)carbonyl]amino}phenyl)carbamate], the IC50 in assay [1] turned out to be 120 nM; with HeLa, 540 nM. Consider `Cc1nsc(Nc2cnc(C(F)(F)F)cn2)c1C(=O)Nc1ccc(F)c(OCC2CCN(CCC(F)(F)F)CC2)c1` [Example 311, N-(4-fluoro-3-{[1-(3,3,3-trifluoropropyl)piperidin-4-yl]methoxy}phenyl)-3-methyl-5-{[5-(trifluoromethyl)pyrazin-2-yl]amino}-1,2-thiazole-4-carboxamide], for which the results for the IC50 (in assay [1]; in the assay on HeLa) were 480 nM and 330 nM, respectively.

Turning to `Cc1nsc(Nc2cnc(C(F)(F)F)cn2)c1C(=O)Nc1ccc(F)c(OCCCN(C)CC(F)F)c1` [Example 301, N-(3-{3-[(2,2-difluoroethyl)(methyl)amino]propoxy}-4-fluorophenyl)-3-methyl-5-{[5-(trifluoromethyl)pyrazin-2-yl]amino}-1,2-thiazole-4-carboxamide], the IC50 in assay [1] amounted to 810 nM; with HeLa, 360 nM.

For `Cc1nsc(Nc2cnc3ccccc3n2)c1C(=O)Nc1cccc(NS(=O)(=O)C2CN(CCC(F)(F)F)C2)c1` [Example 288, 3-methyl-5-(quinoxalin-2-ylamino)-N-[3-({[1-(3,3,3-trifluoropropyl)azetidin-3-yl]sulfonyl}amino)phenyl]-1,2-thiazole-4-carboxamide], the IC50 was 6100 nM in assay [1] and 9900 nM in the assay on HeLa. In the case of `Cc1nsc(Nc2cnc(C(F)(F)F)cn2)c1C(=O)Nc1ccc(F)c(OC2CCN(CC(F)(F)F)C2)c1` (centres unmarked) [Example 315, N-(4-fluoro-3-{[1-(2,2,2-trifluoroethyl)pyrrolidin-3-yl]oxy}phenyl)-3-methyl-5-{[5-(trifluoromethyl)pyrazin-2-yl]amino}-1,2-thiazole-4-carboxamide], the IC50 turned out to be 60 nM in assay [1] and 780 nM with HeLa. In the case of `Cc1nsc(Nc2cncc(C(F)(F)F)n2)c1C(=O)Nc1ccc(OCCCO)nc1` [Example 278, N-[6-(3-hydroxypropoxy)pyridin-3-yl]-3-methyl-5-{[6-(trifluoromethyl)pyrazin-2-yl]amino}-1,2-thiazole-4-carboxamide], the IC50 was 1400 nM in assay [1] and 2600 nM in the assay on HeLa.

On to `Cc1nsc(Nc2cnc(C(F)(F)F)cn2)c1C(=O)Nc1ccc(C(=O)NC2CCN(CC(F)F)CC2)cc1` [Example 259, N-(4-{[1-(2,2-difluoroethyl)piperidin-4-yl]carbamoyl}phenyl)-3-methyl-5-{[5-(trifluoromethyl)pyrazin-2-yl]amino}-1,2-thiazole-4-carboxamide], for which the IC50 in assay [1] was 4400 nM; in the assay with HeLa it was > 10000 nM.

Regarding `Cc1nsc(Nc2cnc(C(F)(F)F)cn2)c1C(=O)Nc1ccc(OCCCNCC(F)(F)F)nc1` [Example 292, 3-methyl-N-(6-{3-[(2,2,2-trifluoroethyl)amino]propoxy}pyridin-3-yl)-5-{[5-(trifluoromethyl)pyrazin-2-yl]amino}-1,2-thiazole-4-carboxamide], the IC50 in assay [1] was 420 nM; in the assay on HeLa it was 1800 nM.

For `CCN1CCN(C(=O)c2ccc(NC(=O)c3c(C)nsc3Nc3cnc(C(F)(F)F)cn3)cc2)CC1` [Example 261, N-{4-[(4-ethylpiperazin-1-yl)carbonyl]phenyl}-3-methyl-5-{[5-(trifluoromethyl)pyrazin-2-yl]amino}-1,2-thiazole-4-carboxamide], the IC50 came out at 2900 nM in assay [1] and 4800 nM in the assay on HeLa.

With `Cc1nsc(Nc2cnc(C(F)(F)F)cn2)c1C(=O)Nc1ccc(OCCCNCCC(F)(F)F)nc1` [Example 294, 3-methyl-5-{[5-(trifluoromethyl)pyrazin-2-yl]amino}-N-(6-{3-[(3,3,3-trifluoropropyl)amino]propoxy}pyridin-3-yl)-1,2-thiazole-4-carboxamide], the IC50 was 560 nM in assay [1] and 1300 nM in the assay on HeLa.

For `Cc1nsc(Nc2cnc(C(F)(F)F)cn2)c1C(=O)Nc1ccc(OCCNCC(F)F)nc1` [Example 305, N-(6-{2-[(2,2-difluoroethyl)amino]ethoxy}pyridin-3-yl)-3-methyl-5-{[5-(trifluoromethyl)pyrazin-2-yl]amino}-1,2-thiazole-4-carboxamide], the IC50 in assay [1] is 220 nM; with HeLa, 1100 nM.

Regarding `Cc1nsc(Nc2cc(C#N)ccn2)c1C(=O)Nc1ccc(OC2CCN(CC(F)F)CC2)nc1` [Example 263, 5-[(4-cyanopyridin-2-yl)amino]-N-(6-{[1-(2,2-difluoroethyl)piperidin-4-yl]oxy}pyridin-3-yl)-3-methyl-1,2-thiazole-4-carboxamide], the IC50 in assay [1] stood at 3500 nM; in the assay with HeLa it was 3200 nM. Taken in the same sequence, the figures for `Cc1nsc(Nc2cncc(C(F)(F)F)n2)c1C(=O)Nc1ccc(C(=O)N2CCN(CC(F)(F)F)CC2)cc1` [Example 272, 3-methyl-N-(4-{[4-(2,2,2-trifluoroethyl)piperazin-1-yl]carbonyl}phenyl)-5-{[6-(trifluoromethyl)pyrazin-2-yl]amino}-1,2-thiazole-4-carboxamide] were 2400 nM and 5800 nM.
